In patent US11932637B2, “Chromane amidine monobactam compounds for the treatment of bacterial infections” (priority 2021, dated 2024):

Assays:
Type in all cases: cell-based
[1] = test system: Pseudomonas aeruginosa expressing AmpC (CL5701); test: Antibiotic activity: growth inhibitory concentration (OD600), P. aeruginosa CL5701; settings: concentration inhibiting 95% of bacterial growth, with BLi Relebactam 4 μg/mL, 22 hours
Method: (§1) Biological Assays Antibiotic Activity: Determination of Growth Inhibitory Concentration The concentrations of compounds required to inhibit the growth of various strains of bacteria were determined in an assay that assessed bacterial growth by measuring optical density at 600 nm (OD600). The bacterial strains tested included the clinical strains Escherichia coli expressing NDM-1 (CLB30016), Klebsiella pneumoniae expressing KPC-1 (CL6569), Acinetobacter baumannii expressing TEM-1, AmpC, and Oxa-24/40 (CL6188) and Pseudomonas aeruginosa expressing AmpC (CL5701). All compounds were tested in the presence of a β lactamase inhibitor (BLi, Relebactam) in 384-well microplates.
(§2) The clinical strains were stored as frozen single use stocks, thawed and diluted into 1.1× cation-adjusted Mueller-Hinton II broth to achieve approximately 2×10^5 CFU/mL. Test compounds were dissolved in DMSO and diluted 1:50 in the assay, resulting in a final concentration range of 100 μM to 0.098 μM. On the day of the assay, 1 μL of test compound was added to the plate followed by 4 μL of 50 μg/mL BLi in MOPS buffer and 45 μL of diluted bacteria. Plates were centrifuged at 1000 rpm for 30 seconds, shaken at approximately 800 rpm for 1 minute, and incubated at 35 t 2° C. for 22 hours. The concentration of BLi used in the assay was 4 μg/mL. At the end of the incubation, absorbance at 600 nm was determined using a spectrophotometer. Inhibition was quantitated by identifying the lowest concentration of test compound that was required to inhibit 95% of the growth of the bacteria.

[2] = test system: Acinetobacter baumannii expressing TEM-1, AmpC, and Oxa-24/40 (CL6188); settings: concentration inhibiting 95% of bacterial growth; with BLi Relebactam 4 μg/mL; 22 hours; OD600
Method: as §1, §2

[3] = test system: Escherichia coli expressing NDM-1 (CLB30016); test: Antibiotic activity: growth inhibitory concentration (OD600), E. coli CLB30016; settings: concentration inhibiting 95% of bacterial growth, with BLi Relebactam 4 μg/mL, 22 hours
Method: as §1, §2

| Structure (SMILES) | PA_CL5701 MITC95 [1] | AB_CL6188 MITC95 [2] | EC_CLB30016 MITC95 [3] |
| --- | --- | --- | --- |
| CC1(C)[C@H](NC(=O)/C(=N\O[C@](C)(C(=O)O)[C@H]2CCc3cc(C(=N)N[C@H]4C[C@@H](N)C4)ccc3O2)c2csc(N)n2)C(=O)N1OS(=O)(=O)O [Compound 7, (S)-2-((R)-6-(N-((1 s,3S)-3-aminocyclobutyl)carbamimidoyl)chroman-2-yl)-2-((((Z)-1-(2-aminothiazol-4-yl)-2-(((S)-2,2-dimethyl-4-oxo-1-(sulfooxy)azetidin-3-yl)amino)-2-oxoethylidene)amino)oxy)propanoic acid] | 1.563 µM |  |  |
| CC1(C)[C@H](NC(=O)/C(=N\O[C@](C)(C(=O)O)[C@H]2CCc3cc(C(=N)N[C@H]4C[C@]5(CCNC5)C4)ccc3O2)c2csc(N)n2)C(=O)N1OS(=O)(=O)O [Compound 22, (S)-2-((R)-6-(N-((2r,4S)-6-azaspiro[3.4]octan-2-yl)carbamimidoyl)chroman-2-yl)-2-((((Z)-1-(2-aminothiazol-4-yl)-2-(((S)-2,2-dimethyl-4-oxo-1-(sulfooxy)azetidin-3-yl)amino)-2-oxoethylidene)amino)oxy)propanoic acid] | 1.563 µM |  |  |
| CC1(C)[C@H](NC(=O)/C(=N\O[C@](C)(C(=O)O)[C@H]2CCc3cc(C(=N)N[C@H]4C[C@@]5(CCNC5)C4)ccc3O2)c2csc(N)n2)C(=O)N1OS(=O)(=O)O [Compound 23, (S)-2-((R)-6-(N-((2s,4R)-6-azaspiro[3.4]octan-2-yl)carbamimidoyl)chroman-2-yl)-2-((((Z)-1-(2-aminothiazol-4-yl)-2-(((S)-2,2-dimethyl-4-oxo-1-(sulfooxy)azetidin-3-yl)amino)-2-oxoethylidene)amino)oxy)propanoic acid] | 3.125 µM | 6.25 µM | 6.25 µM |
| CC1(C)[C@H](NC(=O)/C(=N\O[C@](C)(C(=O)O)[C@H]2CCc3cc(C(=N)NC4CC(N)(C[C@H](O)CO)C4)ccc3O2)c2csc(N)n2)C(=O)N1OS(=O)(=O)O (stereo partly drawn) [Compound 94, (S)-2-((R)-6-(N-((1S,3R)-3-amino-3-((S)-2,3-dihydroxypropyl)cyclobutyl)carbamimidoyl)chroman-2-yl)-2-((((Z)-1-(2-aminothiazol-4-yl)-2-(((S)-2,2-dimethyl-4-oxo-1-(sulfooxy)azetidin-3-yl)amino)-2-oxoethylidene)amino)oxy)propanoic acid] | 1.563 µM | 6.25 µM |  |
| CC1(C)[C@H](NC(=O)/C(=N\O[C@](C)(C(=O)O)[C@H]2CCc3cc(C(=N)N[C@H]4C[C@@](N)(C[C@@H](O)CO)C4)ccc3O2)c2csc(N)n2)C(=O)N1OS(=O)(=O)O [Compound 95, (S)-2-((R)-6-(N-((1R,3R)-3-amino-3-((R)-2,3-dihydroxypropyl)cyclobutyl)carbamimidoyl)chroman-2-yl)-2-((((Z)-1-(2-aminothiazol-4-yl)-2-(((S)-2,2-dimethyl-4-oxo-1-(sulfooxy)azetidin-3-yl)amino)-2-oxoethylidene)amino)oxy)propanoic acid] | 1.563 µM |  | 6.25 µM |
| CC1(C)[C@H](NC(=O)/C(=N\O[C@](C)(C(=O)O)[C@H]2CCc3cc(C(=N)N[C@H]4C[C@](N)(CC(O)CO)C4)ccc3O2)c2csc(N)n2)C(=O)N1OS(=O)(=O)O (stereo partly drawn) [Compound 96, (S)-2-((R)-6-(N-((1R,3S)-3-amino-3-((S)-2,3-dihydroxypropyl)cyclobutyl)-carbamimidoyl)chroman-2-yl)-2-((((Z)-1-(2-aminothiazol-4-yl)-2-(((S)-2,2-dimethyl-4-oxo-1-(sulfooxy)azetidin-3-yl)amino)-2-oxoethylidene)amino)oxy)propanoic acid] | 1.563 µM | 6.25 µM |  |
| COCc1c(C(=N)N[C@H]2C[C@@H](N)C2)ccc2c1CC[C@H]([C@](C)(O/N=C(\C(=O)N[C@@H]1C(=O)N(OS(=O)(=O)O)C1(C)C)c1csc(N)n1)C(=O)O)O2 [Compound 124, (S)-2-((R)-6-(N-((1s,3S)-3-aminocyclobutyl)carbamimidoyl)-5-(methoxymethyl)chroman-2-yl)-2-((((Z)-1-(2-aminothiazol-4-yl)-2-(((S)-2,2-dimethyl-4-oxo-1-(sulfooxy)azetidin-3-yl)amino)-2-oxoethylidene)amino)oxy)propanoic acid] | 3.125 µM |  | 50 µM |
| COC[C@]1(NC(=N)c2ccc3c(c2)CC[C@H]([C@](C)(O/N=C(\C(=O)N[C@@H]2C(=O)N(OS(=O)(=O)O)C2(C)C)c2csc(N)n2)C(=O)O)O3)CC[C@@H](N)CC1 [Compound 126, (S)-2-((R)-6-(N-((1s,4S)-4-amino-1-(methoxymethyl)cyclohexyl)carbamimidoyl)chroman-2-yl)-2-((((Z)-1-(2-aminothiazol-4-yl)-2-(((S)-2,2-dimethyl-4-oxo-1-(sulfooxy)azetidin-3-yl)amino)-2-oxoethylidene)amino)oxy)propanoic acid] | 6.25 µM |  | 25 µM |
| COC[C@]1(NC(=N)c2ccc3c(c2)CC[C@H]([C@](C)(O/N=C(\C(=O)N[C@@H]2C(=O)N(OS(=O)(=O)O)C2(C)C)c2csc(N)n2)C(=O)O)O3)CC[C@H](N)CC1 [Compound 127, (S)-2-((R)-6-(N-((1r,4R)-4-amino-1-(methoxymethyl)cyclohexyl)carbamimidoyl)chroman-2-yl)-2-((((Z)-1-(2-aminothiazol-4-yl)-2-(((S)-2,2-dimethyl-4-oxo-1-(sulfooxy)azetidin-3-yl)amino)-2-oxoethylidene)amino)oxy)propanoic acid] | 3.125 µM |  |  |
